Reference: ChEMBL document CHEMBL3886271, “Method for selectively inhibiting ACAT1 in the treatment of alzheimer's disease” (2015)
pIC50: −log10 of the molar value.

What follows are molecules tested against T1, Sterol O-acyltransferase 2 (Homo sapiens, UniProt O75908) (assay: Inhibition Assay: Methods for assessing the selectively of ACAT1 inhibitors are known in the art and can be based upon any conventional assay including, but not limited to the determination of the half maximal (50%) inhibitory concentration (IC) of a substance (i.e., 50% IC, or IC50), the binding affinity of the inhibitor (i.e., Ki), and/or the half maximal effective concentration (EC50) of the inhibitor for ACAT1 as compared to ACAT2. See, e.g., Lada, et al. (2004) J. Lipid Res. 45:378-386 and U.S. Pat. No. 5,968,749. ACAT1 and ACAT2 proteins that can be employed in such assays are well-known in the art and set forth, e.g., in GENBANK Accession Nos. NP-000010 (human ACAT1) and NP-005882 (human ACAT2). See also U.S. Pat. No. 5,834,283.).
T1 sequence (O75908 whole entry): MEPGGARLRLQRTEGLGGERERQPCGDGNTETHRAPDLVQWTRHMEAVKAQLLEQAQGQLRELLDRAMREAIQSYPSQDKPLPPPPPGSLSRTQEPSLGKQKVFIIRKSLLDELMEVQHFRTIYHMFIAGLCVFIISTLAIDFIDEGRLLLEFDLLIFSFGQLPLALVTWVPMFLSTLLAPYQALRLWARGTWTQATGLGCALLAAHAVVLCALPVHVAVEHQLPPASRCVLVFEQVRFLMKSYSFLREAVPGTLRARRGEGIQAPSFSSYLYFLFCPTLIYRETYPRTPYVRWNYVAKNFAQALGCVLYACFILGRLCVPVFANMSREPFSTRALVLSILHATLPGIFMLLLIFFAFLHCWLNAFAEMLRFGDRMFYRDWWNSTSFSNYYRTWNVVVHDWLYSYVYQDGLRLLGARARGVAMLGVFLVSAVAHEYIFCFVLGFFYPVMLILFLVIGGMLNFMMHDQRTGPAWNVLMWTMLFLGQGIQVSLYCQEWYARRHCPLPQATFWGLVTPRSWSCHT

Structure (SMILES) | pIC50
CC(C)c1cccc(C(C)C)c1NC(=O)CC(=O)C(Cc1ccccc1)Cc1ccc(OC(=O)CCCCCCN2CCCCCC2=O)cc1 (stereo unspecified) | 6.28
CCCCCCCCCCNc1cc(-c2ccccc2)nn1-c1ccccc1 | 4.01
CC(C)c1cccc(C(C)C)c1NC(=O)CC(=O)C(Cc1ccccc1)Cc1ccc(O)cc1 (stereo unspecified) | 5.82
CCCCCCCC(=O)CNc1cc(-c2ccccc2)nn1-c1ccccc1 | 4.28
CCCCCCCCC(=O)CNc1cc(-c2ccccc2)nn1-c1ccccc1 | 4.12
CCCC[C@H](C)[C@@H]1CC(=O)N[C@@H](Cc2ccccc2)C(=O)N[C@@H](C)C(=O)N[C@H](CC(C)C)C(=O)O1 [BEAUVERIOLIDE I] | 4.70
